A word on the IC50: it is the midpoint of a concentration-inhibition curve. A lower IC50 goes with greater potency.

The structures appear in SMILES notation. Where only a bound is given, the exact number is not on record here.

In experiment [1] the test system is HSCs. Nature of the experiment: MTT cell viability assay, HSCs. Type of experiment: cell-based. To be noted: 72 h, mean ± SD of three experiments. The procedure: (§1) Cell viability was evaluated using an MTT assay. HSCs, HepG2, Bel-7402, and L02 cells were seeded, respectively, in 96-well plates at a density of 3 × 10^3 cells per-well and stabilized at 37 °C for 24 h in a humidified atmosphere with 5% CO2. The growing cells were exposed to various concentrations of the tested drugs and incubated for 72 h (37 °C, 5% CO2). The MTT solution (20 μL, 5 mg/mL) was added to each well and incubated for 4 h. After removing the media, formazan crystals were dissolved with DMSO (150 μL). After shaking for 10 min, the absorbance was quantified at 490 nm. Wells containing no drugs were used as blanks. The IC50 values were defined as the concentration of compounds that produced a 50% reduction of surviving cells and were calculated using the Logit-method. The inhibitory rate was calculated in the following Equation (1): Inhibition rate (%) = (1 − OD Sample group/OD Control group) × 100%(1)
In general terms: Tetrazolium assays rely on reduction of a dye to a coloured formazan, in cell work by metabolically active cells.

The next experiment deals with HepG2. Nature of the experiment: MTT cell viability assay, HepG2. The class given is cell-based. The following applies: Homo sapiens, 72 h, mean ± SD of three experiments. The method, then:
as §1

In the next experiment the test system is Bel-7402. Nature of the experiment: MTT cell viability assay, Bel-7402. Type of experiment: cell-based. To be noted: Homo sapiens, 72 h, mean ± SD of three experiments. The procedure:
as §1

Another experiment deals with L02. Nature of the experiment: MTT cell viability assay, L02 normal liver cell. The class given is cell-based. The following applies: Homo sapiens, 72 h, mean ± SD of three experiments. The method, then: as §1
For experiment [2], the system named is CCl4 acute liver injury mice model. Nature of the experiment: CCl4 acute liver injury mice model (HE staining, serum ALT and AST). Type of experiment: in vivo. The following applies: 20 mg/kg intragastric, 8 days, CCl4 i.p., 16 h after injury; for activity of ALT in serum / activity of AST in serum: vs model group. The method, then: The twelve mice were randomly divided into the control group, model group, administration of OA group, and administration of 3g group. In the administration of OA and 3g group, the mice were fed with OA and 3g suspension with 0.5% CMC-Na at a dose of 20 mg/kg body weight. The control group and model group were intragastrically administered with equal volume of 0.5% CMC-Na; during administration for 8 days, the general activity, fur, and feces of mice were observed daily. After administration for 1 h on the 8th day, the other groups were intraperitoneally injected with 10mL/kg 0.2% of the carbon tetrachloride (CCl4) olive oil solution, while the control group was intraperitoneally injected with olive oil solution. After 16 h of injury, the serum was prepared by centrifugation at 3000 rpm by orbital blood. The ability of ALT and AST was measured according to the instructions of the assay kit. The liver tissues of each group were taken out and the morphological differences were observed. The large lobe of liver was taken for pathological examination with HE staining under an optical microscope (×100).

Experiment [3] has as its system HSCs. Briefly: Annexin V-FITC/PI staining apoptosis assay (flow cytometry). The class given is cell-based. To be noted: 72 h, control cells 15.1%. The procedure:
HSCs cells in logarithmic growth phase were cultured in 6-well plates at a density of 3 × 10^4 cells/mL for 24 h at 37 °C in a humidified atmosphere with 5% CO2. HSCs cells were treated with 3g at various concentrations (0, 1.5, 3.0, and 6.0 µM) for 72 h. Then, cells were collected, washed with annexin-binding buffer, and stained with annexin V-FITC and PI for 15 min in the dark. After that, the samples were analyzed by flow cytometry (BD FACSCalibur, San Jose, CA, USA).

The test system of experiment [4] is HSCs. Briefly: Mitochondrial membrane potential assay (Rh123, flow cytometry). Type of experiment: cell-based. To be noted: 1.5, 3.0, 6.0 µM, 72 h. The method, then:
HSCs cells in logarithmic growth phase were seeded in 6-well culture plate at a density of 3 × 10^4 cells/mL for 24 h at 37 °C in incubator with 5% CO2. After treatment with different concentrations of 3g (0, 1.5, 3.0, and 6.0 μM) for 72 h, cells were collected and washed twice in cold PBS, then resuspended in 1 mL cell culture medium with Rh123 (10 μg/mL) and incubated for 30 min at 37 °C. After being washed twice with cold PBS, cells were immediately analyzed by the flow cytometer at 488 nm excitation wavelength.
On the technique in general: A flow cytometer gives signals particle by particle.

Experiment [5] has as its system HSCs. Nature of the experiment: Intracellular free Ca2+ levels assay (Fluo-3AM, flow cytometry). The class given is cell-based. To be noted: 1.5, 3.0, 6.0 µM, 72 h. The method, then:
HSCs cells in logarithmic growth phase were cultured in 6-well plates at a density of 3 × 10^4 cells/mL for 24 h at 37 °C in incubator with 5% CO2. After treatment with different concentrations of 3g (0, 1.5, 3.0, and 6.0 μM) for 72 h, cells were collected and washed twice with cold PBS, then resuspended in HBSS buffer with 10 μM Fluo-3AM and incubated for 30 min at 37 °C in the dark. Intracellular Ca^2+ levels were analyzed by the flow cytometer at 488 nm excitation wavelength.

Experiment [6] has as its system HSCs. Nature of the experiment: Giemsa staining and DAPI staining, morphological changes. Type of experiment: cell-based. The following applies: 1.5, 3.0, 6.0 µM, 72 h. The procedure: HSCs cells in logarithmic growth phase were cultured in 6-well plates at a density of 3 × 10^4 cells/mL for 24 h at 37 °C in a humidified atmosphere with 5% CO2. Then, each group was treated with 3g at various concentrations (0, 1.5, 3.0, and 6.0 µM) for 72 h. The cell culture medium was discarded. Additionally, the cells were washed twice with PBS, kept in PBS/ethanol (1:1) for 2 min, and fixated in ethanol for 10 min. After removing the ethanol, the cells were stained with giemsa staining for 2 min and observed under inverted phase-contrast microscope at a magnification of 400×.
HSCs cells in logarithmic growth phase were cultured in 6-well plates at a density of 3 × 10^4 cells/mL for 24 h at 37 °C in a humidified atmosphere with 5% CO2. Additionally, each group was treated with different concentrations of 3g (0, 1.5, 3.0, and 6.0 µM) for 72 h. Cell culture medium was discarded, and the cells were washed twice with PBS. The cells were fixed with 4% paraformaldehyde (pH 7.4) for 15 min and then washed twice with PBS. With an excitation wavelength of […], 4′,6-diamidino-2-phenylindole (DAPI) staining was then performed for 2 min, and nuclear fragments were observed using inverted phase-contrast microscope at a magnification of 400×.

In the case of `CC(C)C(N)C(=O)OC1CCC2(C)C(CCC3(C)C2CC=C2C4CC(C)(C)CCC4(C(=O)O)CCC23C)C1(C)C` (centres unmarked) [3f], the IC50 is 19.6 ± 3.2 µM in the experiment on HSCs [1], 18.6 ± 2.65 µM with HepG2, > 25 µM with Bel-7402 and 15.2 ± 1.2 µM in the experiment on L02.

Turning to `CNCC(=O)OC1CCC2(C)C(CCC3(C)C2CC=C2C4CC(C)(C)CCC4(C(=O)O)CCC23C)C1(C)C` (centres unmarked) [3i], the IC50 in the experiment with HSCs [1] is 7.3 ± 1.58 µM; with HepG2 it was > 25 µM; in the experiment with Bel-7402, 11.8 ± 0.83 µM; in the experiment with L02 it was > 50 µM.

Regarding `CC(N)C(=O)OC1CCC2(C)C(CCC3(C)C2CC=C2C4CC(C)(C)CCC4(C(=O)O)CCC23C)C1(C)C` (centres unmarked) [3b], the half-inhibitory concentration (IC50) with HSCs [1] is 9.92 ± 1.05 µM; in the experiment on HepG2, 12.2 ± 1.48 µM; in the experiment on Bel-7402 it was > 25 µM; in the experiment on L02 it was > 50 µM.

With `CCC(C)C(N)C(=O)OC1CCC2(C)C(CCC3(C)C2CC=C2C4CC(C)(C)CCC4(C(=O)O)CCC23C)C1(C)C` (centres unmarked) [3e], the IC50 in the experiment on HSCs [1] was 24.5 ± 1.99 µM; in the experiment on HepG2, 18 ± 1.78 µM; with Bel-7402 it was 18.7 ± 1.63 µM; in the experiment with L02, > 25 µM.

For the molecule `CC1(C)CC[C@]2(C(=O)O)CC[C@]3(C)C(=CC[C@@H]4[C@@]5(C)CC[C@H](O)C(C)(C)[C@@H]5CC[C@]43C)[C@@H]2C1` [OA, 3β-hydroxyolean-12-en-28-oic acid, reference compound], the IC50 with HSCs [1], in the experiment on HepG2, in the experiment with Bel-7402 and in the experiment with L02 was > 50 µM in each case. The “activity of ALT in serum” value in experiment [2] was “reduced to some extent”. In addition, in experiment [2], the “activity of AST in serum” value was “reduced to some extent”.

As for `CC1(C)CCC2(C(=O)O)CCC3(C)C(=CCC4C5(C)CCC(OC(=O)CN)C(C)(C)C5CCC43C)C2C1` (centres unmarked) [3a], the IC50 in the experiment on HSCs [1] was 13.6 ± 1.12 µM; with HepG2, 11.5 ± 0.95 µM; with Bel-7402 it was 12.1 ± 1.32 µM; in the experiment on L02, > 25 µM.

`CC1(C)CCC2(C(=O)O)CCC3(C)C(=CCC4C5(C)CCC(OC(=O)C(N)Cc6ccccc6)C(C)(C)C5CCC43C)C2C1` (centres unmarked) [3h]: the 50% inhibitory concentration (IC50) in the experiment with HSCs [1] was 14.8 ± 0.8 µM; in the experiment with HepG2 it was 11.5 ± 0.94 µM; in the experiment with Bel-7402, 8.5 ± 1.65 µM; in the experiment on L02, > 50 µM.

`CC1(C)CCC2(C(=O)O)CCC3(C)C(=CCC4C5(C)CCC(OC(=O)C(N)CCCCN)C(C)(C)C5CCC43C)C2C1` (centres unmarked) [3g]: the IC50 with HSCs [1] was 3.46 ± 1.16 µM; in the experiment with HepG2 it was 3.67 ± 0.61 µM; in the experiment on Bel-7402, 4.7 ± 0.75 µM; in the experiment on L02, 12.3 ± 2.34 µM. Besides, the “percentage (Q2 + Q4) of apoptotic HSCs” value in the experiment with HSCs [3] (1.5 µM) worked out at 29.4%; in the experiment with HSCs [3] (3.0 µM), 50.5%; with HSCs [3] (6.0 µM) it was 76.5%. Also, the “change of Rh123 mean fluorescent intensity (MFI) with concentration” value in the experiment on HSCs [4] is “decreased with the administration of higher concentrations”. The “change of intracellular-free Ca2+ fluorescence with concentration” value in the experiment on HSCs [5] is on record as “increased dramatically”. In addition, the “apoptotic morphological changes of HSCs, Giemsa staining” value with HSCs [6] is “evident nuclear fragmentation, chromatin condensation, and margination in a dose-dependent manner”. Besides, the “nuclear changes of HSCs, DAPI staining” value with HSCs [6] is “nuclear condensation and fragmentation, as well as the formation of apoptotic bodies with irregular shape”. In experiment [2], the “liver morphological observation by HE staining” value was “more pathological changes were relieved in balloon-like hepatocyte edema and interstitial inflammatory cell infiltration than in OA”. The “activity of ALT in serum” value in experiment [2] is “remarkably closer to control”. In addition, the “activity of AST in serum” value in experiment [2] is reported as “remarkably closer to control”.

With `CC1(C)CCC2(C(=O)O)CCC3(C)C(=CCC4C5(C)CCC(OC(=O)C6CCCN6)C(C)(C)C5CCC43C)C2C1` (centres unmarked) [3c], the IC50 was 15.6 ± 2.31 µM in the experiment on HSCs [1], 11.1 ± 0.63 µM with HepG2, 10.5 ± 1.49 µM with Bel-7402 and 10.1 ± 0.56 µM in the experiment on L02.

`CC1(C)CCC2(C(=O)O)CCC3(C)C(=CCC4C5(C)CCC(OC(=O)C6CCC(=O)N6)C(C)(C)C5CCC43C)C2C1` (centres unmarked) [3j]: the IC50 is > 25 µM with HSCs [1], 23.9 ± 2.65 µM in the experiment with HepG2, > 25 µM in the experiment with Bel-7402 and > 50 µM in the experiment with L02.

With `CC(C)CC(N)C(=O)OC1CCC2(C)C(CCC3(C)C2CC=C2C4CC(C)(C)CCC4(C(=O)O)CCC23C)C1(C)C` (centres unmarked) [3d], the IC50 in the experiment with HSCs [1], in the experiment on HepG2, in the experiment on Bel-7402 and in the experiment on L02 was > 25 µM in each case.

These data come from paper PMC6017290, “Oleanolic Acid-amino Acids Derivatives: Design, Synthesis, and Hepatoprotective Evaluation In Vitro and In Vivo” (Molecules : A Journal of Synthetic Chemistry and Natural …, 2018).
